Source: PubChem BioAssay AID743028 (The Scripps Research Institute Molecular Screening Center, 2013)

Test: IV and oral PK profile in mice – LC-MS, in vivo study for V1a-R antagonist project, late-stage follow-up (AID 743028)
Conditions: C57Bl6 mouse plasma PK; for Cmax: peak plasma concentration; for AUC last: plasma exposure; for Tmax: time to peak

SMILES: O=C(C1CCN(c2ccc(Cl)cn2)CC1)N(CC1CC1)c1ccc(Cl)cc1
- half-life (IV dosing 1 mg/kg): 2.22 h
- MRT inf (IV dosing 1 mg/kg, mean residence time): 1.65 h
- Cmax (IV dosing 1 mg/kg): 19.5 µM
- clearance (IV dosing 1 mg/kg, plasma clearance): 2.9 mL/min/kg
- AUC last (IV dosing 1 mg/kg): 10.5 µM·h
- Tmax (IV dosing 1 mg/kg): 0.08 h
- Vss (IV dosing 1 mg/kg, volume of distribution): 0.26 L/kg
- half-life (PO dosing 10 mg/kg): 2.88 h
- bioavailability (PO dosing 10 mg/kg, oral bioavailability): 6.54%
- Cmax (PO dosing 10 mg/kg): 3.08 µM
- apparent oral clearance (CL/F) (PO dosing 10 mg/kg, plasma clearance): 35.1 mL/min/kg
- AUC last (PO dosing 10 mg/kg): 10.5 µM·h
- Tmax (PO dosing 10 mg/kg): 0.667 h
